From patent US10327423B2, “Antimicrobial compounds and compositions, and uses thereof” (Akeso Biomedical, Inc., priority 2014, dated 2019)
Entries after “also recorded” stand apart in the source; their conditions may differ.

Key:
[1] = test system: Enterococcus faecalis NCTC 12697; test: Biofilm formation on plastic coated UV beads; assay type: cell-based; conditions: different concentrations of Fe-QA; T=24 h
Experimental: Bacteria (Enterococcus faecalis NCTC 12697, Staphylococcus epidermidis F1513 and Staphylococcus aureus ATCC 25923) were grown on Brain heart infusion (BHI) passaged to new medium either containing Fe-QA or alone. Growth suspensions were prepared at 0.0001 OD/ml and then allowed to grow at 37° C. under normal atmospheric conditions for 24 h in BHI with plastic coated UV beads (Lascells). […], 10 μl suspension was serially diluted 10 fold to 10-3, 10-4, 10-5, 10-6, 10-7, 10-8. For each dilution, 10 μl was spotted on BHI agar plates and colonies counted after 24 h. The beads were also removed washed in PBS before adding to 1 ml PBS. After vortex mixing, 10 μl of the cell suspension was serially diluted as above and cell counts carried out.

H. pylori CCUG 17875 = test: H. pylori attachment to human gastric tissue sections (FITC-labelled bacteria); assay type: cell-based, Helicobacter pylori; conditions: Fe-QA 1 mM and 0.2 mM; 1 hour at room temperature
Experimental: The ability of H. pylori CCUG 17875 to bind to samples of human gastric tissue in the presence of Lewis b antigen, Le^b, and two concentrations of Fe-QA (1 mM and 0.2 mM) was measured. Binding was quantified by fluorescence using H. pylori that had been labeled with fluorescein using FITC (fluorescein isothiocyanate), and human gastric tissue that was embedded in […]. The bacteria were suspended in blocking buffer (1% BSA in PBS) and applied to re-hydrated histo-sections of human gastric tissue. Binding was assessed microscopically, and quantified as the average number of bacteria bound to the tissue.

H. pylori strain 17875 = test: Binding of I-125 labelled Le^b to H. pylori (bound/free); design: species or system Helicobacter pylori; conditions: increasing Fe-QA concentration; pH 7.4
Experimental: Binding of Le^b to H. pylori strain 17875 at pH 7.4 was assayed by labeling Le^b with radioactive iodine (1-125), mixing the radioactive antigen with H. pylori bacteria, pelletizing the bacteria using a centrifuge, and measuring the radioactivity in the pellet and in the supernatant. Any Le^b that is bound to the bacteria is quantified by the measurement of radioactivity in the pellet. The ratio of the radioactivity in the pellet to the supernatant therefore corresponds to the ratio of Le^b bound by the bacteria to that which remains unbound, expressed as bound/free.

[2] = test system: Pseudomonas aeruginosa PAO-1; test: Biofilm coverage rate on glass slides (SYTO17, laser scanning microscopy); assay type: cell-based; conditions: Fe-QA 100 μM; 72 hours
Experimental: (§1) Pseudomonas aeruginosa PAO-1, and a clinically isolated uropathogenic Escherichia coli UPEC-536 were routinely grown on either LB (Luria-Bertani, Oxoid, UK) agar plates at 37° C. or in broth at 37° C. with 200 rpm shaking. UV-sterilized glass slides were incubated in either 15 mL RPMI-1640 defined medium (Sigma, UK) or 15 mL RPMI-1640 with Fe-QA inoculated with diluted (OD600=0.01) bacteria from overnight cultures at 37° C. with 60 rpm shaking for 72 hours. The slides were removed from bacterial culture and washed with 15 mL phosphate buffered saline at room temperature for 5 minutes three times and then rinsed with distilled H2O. After washing, the slides were stained with 20 μM SYTO17 dye (Invitrogen, UK) at room temperature for 30 minutes. After removing excess staining dye and air-drying, the samples were examined using a Carl Zeiss LSM 700 Laser Scanning Microscope with ZEN 2009 imaging software (Carl Zeiss, Germany). The coverage rate of bacteria on the surface was analysed using open source Image J 1.44 software (National Institute of Health, US).

[3] = test system: uropathogenic Escherichia coli UPEC-536; test: as above; assay type: cell-based; conditions: Fe-QA 0.1 μM, 1 μM, aM and 100 μM; 72 hours
Experimental: as §1

[4] = test system: Pseudomonas aeruginosa (PAO-1 Clinical); test: Growth curve of antibiotic resistant clinical isolate with kanamycin and FeQ; assay type: cell-based; conditions: kanamycin and FeQ added to growth media
Experimental: The impact on the growth curve of an antibiotic resistant clinical isolate of Pseudomonas aeruginosa (PAO-1 Clinical) grown in the presence of kanamycin and FeQ versus the clinical isolate grown in the presence of (i) FeQ, (ii) kanamycin or (iii) without addition of FeQ or kanamycin (control) was assessed.

Campylobacter = Campylobacter carriage in chickens (cfu/g of droppings and caeca samples); assay type: in vivo; conditions: days 0-42, dirty litter challenge
Experimental: A study was performed to evaluate growth promotion and reduction of Campylobacter carriage using FeQ and FeTyr in Ross 308 male broilers with 7 treatment groups. Each treatment group comprised four replicates of 10 birds per pen (40 birds/treatment group and 4 pens of 10 birds/treatment group), and there were 2 control groups and 5 test groups. All the test groups and one of the control groups were exposed at day 20 of the trial to dirty litter, which tested positive for Campylobacter. This method was used to provide a more natural method to Campylobacter challenge the birds. Thus there was a positive control where one treatment group was challenged with Campylobacter and one negative control group where the birds were not challenged, and five treatment groups that were all challenged with Campylobacter. The total number of birds used in the 7 treatment groups was 280. Treatment group 1 was a negative control where birds just received the commercial feed, and were not challenged with dirty litter containing Campylobacter. Treatment group 2 was the positive control where the birds received the commercial feed, and were challenged with dirty litter containing Campylobacter at day 20. Treatment group 3 received 0.22 g/L of FeQ in their drinking water and 0.22 g/Kg FeQ in their feed during the entire trial, and was challenged with dirty litter containing Campylobacter at day 20. Treatment group 5 received 0.22 g/L of FeQ in their drinking water during the entire trial, and was challenged with dirty litter containing Campylobacter at day 20. Treatment group 6 received 0.22 g/kg FeQ in their feed during the entire trial, and was challenged with dirty litter containing Campylobacter at day 20. […]
Prior to challenging the chickens with dirty litter containing Campylobacter at day 20, each pen was tested for Campylobacter using cloacal swabs. […] Samples were analyzed for blood chemistry, including analysis for alkaline phosphatase, aspartate amino transferase, alanine amino transferase, gamma-glutamyl transferase, lactate dehydrogenase, total protein, albumin, globulin, amylase and glucose.

Question: Which results are given for `O=C1[O][Fe]23([O]C(=O)[C@]4(C[C@@H](O)[C@H](O)[C@H](O)C4)[O]2)([O]C(=O)[C@]2(C[C@@H](O)[C@H](O)[C@H](O)C2)[O]3)[O][C@@]12C[C@@H](O)[C@H](O)[C@H](O)C2` [FeQ, a complex of quinic acid with Fe III]?
Answer: biofilm formation on plastic coated UV beads [1]: inhibited; binding of H. pylori to human gastric tissue (H. pylori CCUG 17875): significantly reduced; competitive inhibition of Le^b binding to H. pylori (bound/free Le^b) (H. pylori strain 17875): increasingly inhibits binding; biofilm formation (coverage rate on glass slide) [2]: inhibits; biofilm formation (coverage rate on glass slide) [3]: inhibits; growth rate versus kanamycin or FeQ alone [4]: large reduction in the growth rate; growth rate versus kanamycin or FeQ alone ([4]; listed as Fe-QA): retarded; Campylobacter colony forming units per gram of bird droppings at day 42 (Campylobacter; Treatment 7: FeQ 0.022 g/L in drinking water): less of an effect than the other treatment groups; average Campylobacter cfu/g of caeca samples at day 42 versus positive control (Campylobacter; treatment groups 3, 5, 6, 7 (FeQ) and 8 (FeTyr)): lower levels of Campylobacter in their caeca; also recorded: performed better than the positive control
